Data published in article PMC11889159 (Scientific Reports, 2025).
Values joined by “and” are separate entries in the source; they are usually repeats but may differ in a detail not shown here. Equal entries are not always repeated. Where two headings read alike, the source gives them in different places.

Columns and labels:
[1] = target: T1, bovine serum albumin (BSA) (Bos taurus, UniProt P02769)
Method: UV absorption measurement is a simple yet effective technique for examining structural changes and complex formation. […] Variations in the absorbance near 280 nm signify interactions with small molecule drugs.
Absorption spectra were recorded using a UV-vis spectrophotometer (T6 New Century) over the wavelength range of 200–400 nm.

[2] = target: T1, bovine serum albumin (BSA); details: for τave (average fluorescence lifetime): free BSA 3.72 ns
From the text: In general, the fluorescence lifetime measurement is the most definitive method to distinguish between dynamic and static quenching.

[3] = target: T1, bovine serum albumin (BSA); test: biochemical; details: logKb
[4] = target: T1, bovine serum albumin (BSA); details: experimental ΔG versus docking ΔG at Site I
Method: The three-dimensional structure of BSA was obtained from the RCSB Protein Data Bank (PDB) database (https://www.rcsb.org/) (PDB ID: 4f5s). […] Open Babel 3.1.1 software was utilized to convert the sdf format files from the PubChem database to pdb format. […] Additionally, the molecular visualization was conducted using Pymol version 2.6.0a0 for 3D visualization and LigPlot + version 2.2.8 for 2D visualization.

[5] = target: T1, bovine serum albumin (BSA); test: biochemical
From the text: The inner filter effect (IFE) arises when high analyte concentrations (e.g., fluorophores, ligands, or biomolecules) attenuate excitation light or absorb emitted photons, effectively reducing the optical path length and consequently causing depressed fluorescence readings. To mitigate this phenomenon in our experimental system, we strategically optimized sample concentrations through preliminary calibration studies.
Fluorescence quenching mechanisms can be categorized into static, dynamic, and combined quenching. […] Combined quenching involves both mechanisms, where the fluorophore collides with and forms a stable complex with the quencher. These processes can be described by the Stern-Volmer equation[49]: [drawing 1]
Where F0 and F are the fluorescence intensities in the absence and presence of the quencher, respectively; KSV is the Stern-Volmer quenching constant; [Q] is the quencher concentration; Kq is the bimolecular quenching constant; and τ0 is the fluorescence lifetime in the absence of the quencher (6.3 × 10^− 9 s)[50]. […] (unit: mol/L), and the Y-axis represents the fluorescence intensity ratio F0/F. The data points represent the experimentally measured F0/F values, while the solid line is the linear fit. […] The slope obtained from the linear fit according to the Stern-Volmer equation represents the quenching constant (KSV).
The binding constant (Kb) is calculated using the following formula: […]
Where Kb is the binding constant, n is the number of binding sites per BSA molecule, F0 and F are the fluorescence intensities without and with the quencher, respectively, and [Q] is the quencher concentration. Linear regression is used to fit the data, resulting in a straight line whose slope indicates n (the number of binding sites), and the intercept gives logKb.
Where R is 8.314 J·mol^-1·K^-1, T is 298 K (273 + 25 °C), and Kb is the calculated binding constant.
Fluorescence spectra were acquired using a Hitachi F-7100 fluorescence spectrophotometer equipped with a 150 W xenon lamp and 10 mm quartz cuvette. The instrument parameters were maintained at excitation and emission bandwidths of 10 nm, with a scanning speed of 1200 nm·min^− 1 and PMT voltage of 400 V throughout the experiments.

[6] = target: T1, bovine serum albumin (BSA); details: for λex/λem: pH 7.4
From the text: Three-dimensional fluorescence spectroscopy, or excitation-emission matrix (EEM) spectroscopy, offers distinct advantages and broad applications for analyzing interactions between small molecules and BSA[55].
The excitation wavelength was systematically scanned from 220 to 350 nm with 5 nm increments, while the emission spectra were simultaneously recorded across the 220–500 nm range at a scanning speed of 12,000 nm min^− 1. The excitation and emission slit widths were maintained at 10 nm throughout the measurements to ensure consistent spectral resolution.

[7] = target: T1, bovine serum albumin (BSA); test: Job's method, stoichiometry of inclusion complexation with BSA; type: binding; details: [BSA] + [TPT] = 2.0 × 10^-6 mol/L, λex 295 nm
[8] = target: T1, bovine serum albumin (BSA); test: biochemical; details: LogKb, pH 7.4
[9] = target: T1, bovine serum albumin (BSA); details: van't Hoff plot, 293, 298 and 310 K, pH 7.4
[10] = parameters: method as in none printed; details: prolonged circulation; species and source not given; cited from earlier work
[11] = Site marker: Blank (no marker), BSA 1.0 × 10^-6 mol/L
[12] = Site marker: Ibuprofen 2 × 10^-6 mol/L, BSA 1.0 × 10^-6 mol/L
[13] = Site marker: Warfarin 2 × 10^-6 mol/L, BSA 1.0 × 10^-6 mol/L
[14] = BSA 1.0 × 10^-6 mol/L, drug 5.0 × 10^-6 mol/L
[15] = BSA 1.0 × 10^-6 mol/L, drug 5.0 × 10^-6 mol/L, phosphate buffer, 298.15 K
[16] = BSA 1 × 10^-6 mol/L, drug 5 × 10^-6 mol/L, λex 295 nm, λem 350 nm
[17] = BSA 1 × 10^-6 mol/L, drug 5 × 10^-6 mol/L
[18] = BSA 2 × 10^-6 mol/L, drug 0–33 × 10^-6 mol/L, pH 7.4, 298.15 K
[19] = BSA 2 × 10^-6 mol/L, pH 7.4, 298.15 K
[20] = BSA 2 × 10^-6 mol/L, phosphate buffer pH 7.40, λex 295 nm
[21] = slope of double logarithmic plot, 298 K
[22] = drug:BSA 5:1, Peak 1, BSA 3 × 10^-6 mol/L
[23] = drug:BSA 5:1, Peak 1, BSA alone 9750
[24] = drug:BSA 5:1, Peak 1, blue shift
[25] = drug:BSA 5:1, Peak 2, BSA 3 × 10^-6 mol/L
[26] = drug:BSA 5:1, Peak 2, BSA alone 7937
[27] = drug:BSA 5:1, Peak 2, blue shift
[28] = drug:BSA 10:1, Peak 1, BSA 3 × 10^-6 mol/L
[29] = drug:BSA 10:1, Peak 1, BSA alone 9750
[30] = drug:BSA 10:1, Peak 1, blue shift
[31] = drug:BSA 10:1, Peak 2, BSA 3 × 10^-6 mol/L
[32] = drug:BSA 10:1, Peak 2, BSA alone 7937
[33] = drug:BSA 10:1, Peak 2, blue shift

T1 sequence (P02769 25-607): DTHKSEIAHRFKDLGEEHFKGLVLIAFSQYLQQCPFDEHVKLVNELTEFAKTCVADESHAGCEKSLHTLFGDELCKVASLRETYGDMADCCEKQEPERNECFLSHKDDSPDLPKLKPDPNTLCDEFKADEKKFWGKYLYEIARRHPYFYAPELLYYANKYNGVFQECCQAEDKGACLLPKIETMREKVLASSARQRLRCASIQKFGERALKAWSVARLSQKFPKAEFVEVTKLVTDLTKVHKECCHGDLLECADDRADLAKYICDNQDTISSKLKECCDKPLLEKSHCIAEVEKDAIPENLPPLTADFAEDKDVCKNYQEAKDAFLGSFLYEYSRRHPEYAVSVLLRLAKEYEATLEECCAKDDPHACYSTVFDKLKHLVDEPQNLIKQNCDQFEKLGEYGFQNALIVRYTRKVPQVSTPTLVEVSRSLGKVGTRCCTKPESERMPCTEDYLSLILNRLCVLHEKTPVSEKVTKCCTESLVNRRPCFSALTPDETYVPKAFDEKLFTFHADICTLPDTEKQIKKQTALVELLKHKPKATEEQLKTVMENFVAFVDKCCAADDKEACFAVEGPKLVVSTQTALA

SMILES | Kd [3, 11] [µM] | Kd [3, 12] [µM] | Kd [3, 13] [µM] | Kd [5] [µM] | blue shift of the UV absorption peak of BSA at 280 nm [1, 14] [nm] | Changes in absorption peaks (280 nm) [1, 15] | A1 (decay amplitude) [2, 16] | A2 (decay amplitude) [2, 16] | τ1 [2, 16] [ns] | τ2 [2, 16] [ns] | τave (average fluorescence lifetime) [2, 17] [ns] | Stern–Volmer equation Slope [5, 18] | Ksv (Stern-Volmer quenching constant) [5, 19] | blue shift of the maximum fluorescence emission peak of BSA (Δλmax) [5, 20] [nm] | Kq (bimolecular quenching constant) ([5]; Kq = KSV/τ0, τ0 6.3 × 10^-9 s) | n (number of binding sites per BSA molecule) [5, 21] | λex/λem [6, 22] | Intensity [6, 23] | Emission maximum shift [6, 24] [nm] | λex/λem [6, 25] | further results
CCc1c2c(nc3ccc(OC(=O)N4CCC(N5CCCCC5)CC4)cc13)-c1cc3c(c(=O)n1C2)COC(=O)[C@]3(O)CC [CPT-11, Irinotecan] | – | – | – | – | – | – | – | – | – | – | – | – | – | – | – | – | – | – | – | – | Changes in absorption peaks (280 nm) [1]: 280 nm→258 nm; τ2 [2]: 7.79 ns
CC[C@@]1(O)C(=O)OCc2c1cc1n(c2=O)Cc2cc3cc(O)ccc3nc2-1 [10-HCPT, 10-Hydroxycamptothecin] | 120 | 44.7 | 1510 | 121 | 2 | 280 nm→278 nm | 0.8806 | 0.1858 | 2.239 | 7.483 | 4.41 | – | – | – | – | – | – | – | – | – | ΔΔG between experimental and theoretical binding energy [4]: ≈ 10.51 kJ·mol^−1; Kq (bimolecular quenching constant) [5]: 23.79 ×10^11 L·mol^− 1·s^− 1; n (number of binding sites per BSA molecule) [5]: 0.8809; Ksv (Stern-Volmer quenching constant) ([5]; pH 7.4): 14.99 ×10^3 L·mol^− 1; Stern–Volmer equation Slope ([5]; pH 7.4): 14986.88 ± 1787.60; blue shift of the maximum fluorescence emission peak of BSA (Δλmax) ([5]; pH 7.4): 11.8 nm; Emission maximum shift [6]: 15 nm; λex/λem [6]: 225/325 and 275/325
CC[C@@]1(O)C(=O)OCc2c1cc1n(c2=O)Cc2cc3ccccc3nc2-1 [CPT, Camptothecin] | 234 | 759 | 5500 | 236 | 3 | 280 nm→277 nm | 0.7855 | 0.2263 | 1.889 | 5.78 | 3.71 | 18536.73 ± 2298.23 | 18.53 ×10^3 L·mol^− 1 | 1.4 | 29.41 ×10^11 L·mol^− 1·s^− 1 | 0.8287 | 275/340 | 3382 | 0 | 225/340 | Reduction percent (fluorescence intensity) ([6]; drug:BSA 5:1, Peak 1): 65%; Reduction percent (fluorescence intensity) ([6]; drug:BSA 5:1, Peak 2): 30%; Intensity [6, 26]: 5518; Emission maximum shift [6, 27]: 0 nm; Reduction percent (fluorescence intensity) ([6]; drug:BSA 10:1, Peak 1): 67%; λex/λem [6, 28]: 275/340; Intensity [6, 29]: 3179; Emission maximum shift [6, 30]: 0 nm; Reduction percent (fluorescence intensity) ([6]; drug:BSA 10:1, Peak 2): 33%; λex/λem [6, 31]: 225/340; Intensity [6, 32]: 5323; Emission maximum shift [6, 33]: 0 nm
CC[C@@]1(O)C(=O)OCc2c1cc1n(c2=O)Cc2cc3c(CN(C)C)c(O)ccc3nc2-1 [TPT, Topotecan] | – | – | – | 11 | 12 | 280 nm→268 nm | 0.8636 | 0.1543 | 1.699 | 7.6602 | 4.36 | 29101.32 ± 782.38 | 29.10 ×10^3 L·mol^− 1 | 1.0 | 46.19 ×10^11 L·mol^− 1·s^− 1 | 1.1165 | 275/340 | 8453 | 0 | 225/340 | molar fraction at maximum fluorescence intensity change (Job's plot) [7]: 0.5; Kd [3]: 12.6 µM and 6.61 µM and 12 µM; Kd ([8]; 293 K): 3.98 µM; Kd ([8]; 298 K): 4.37 µM; Kd ([8]; 310 K): 5.13 µM; KSV ([5]; as quoted in the discussion of Table 2): 29.10 × 10^2 M^− 1; Intensity [6, 26]: 5380; Emission maximum shift [6, 27]: 0 nm; λex/λem [6, 28]: 275/325; Intensity [6, 29]: 4956; Emission maximum shift [6, 30]: 15 nm; λex/λem [6, 31]: 225/320; Intensity [6, 32]: 2777; Emission maximum shift [6, 33]: 20 nm; ΔS [9]: 0.066 kJ·mol^− 1·K^− 1; circulation t1/2 [10]: ≈ 8 h
